Usually IC50 stands for the concentration at which inhibition is half-maximal. A higher IC50 goes with weaker potency in that assay.

SMILES strings stand for the structures. Where “and” joins values, the source holds several entries; their conditions need not be identical. Equal values may be shown once.

The record followed here is BindingDB's records for patent WO2023288264 (Blueprint Medicines, 2023).

Mitogen-activated protein kinase kinase kinase kinase 1, sequence (Q92918 whole entry): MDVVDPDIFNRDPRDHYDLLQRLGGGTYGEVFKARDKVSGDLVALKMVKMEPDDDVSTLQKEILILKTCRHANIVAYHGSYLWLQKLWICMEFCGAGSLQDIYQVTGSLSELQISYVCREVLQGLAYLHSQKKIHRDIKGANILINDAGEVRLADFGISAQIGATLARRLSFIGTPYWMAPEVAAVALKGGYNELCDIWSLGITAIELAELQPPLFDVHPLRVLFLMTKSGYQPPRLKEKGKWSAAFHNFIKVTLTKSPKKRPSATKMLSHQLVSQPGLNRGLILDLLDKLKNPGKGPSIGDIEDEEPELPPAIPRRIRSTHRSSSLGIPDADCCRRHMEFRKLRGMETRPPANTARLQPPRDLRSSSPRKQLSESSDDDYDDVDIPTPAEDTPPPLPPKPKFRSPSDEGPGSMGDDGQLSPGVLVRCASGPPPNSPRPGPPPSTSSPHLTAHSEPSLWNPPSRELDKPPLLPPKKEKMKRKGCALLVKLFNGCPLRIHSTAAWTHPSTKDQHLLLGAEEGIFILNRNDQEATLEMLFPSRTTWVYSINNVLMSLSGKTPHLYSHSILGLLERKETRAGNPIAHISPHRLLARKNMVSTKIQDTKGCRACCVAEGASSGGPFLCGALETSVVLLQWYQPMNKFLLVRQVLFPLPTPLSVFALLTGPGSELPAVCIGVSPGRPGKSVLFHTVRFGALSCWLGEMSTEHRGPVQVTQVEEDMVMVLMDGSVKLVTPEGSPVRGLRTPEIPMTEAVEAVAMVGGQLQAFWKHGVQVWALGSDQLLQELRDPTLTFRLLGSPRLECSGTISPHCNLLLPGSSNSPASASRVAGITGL

For this assay, the target named is Mitogen-activated protein kinase kinase kinase kinase 1 (Homo sapiens, UniProt Q92918). Kind of assay: MAP4K1 Biochemical Enzymatic Activity. The protocol:
Inhibitors were dissolved in 100% DMSO at a stock concentration of 10 mM. A 100X, 10-point, 4-fold serial dilution of each inhibitor was created in 100% DMSO either manually or on a Hamilton STAR liquid handler, starting at a relevant concentration, usually 1 mM. A volume of 0.130 µL of each concentration was transferred to the relevant wells of a 384-well plate (Greiner 781 201) in duplicate using a TTPLabtech Mosquito nano-litre dispenser. Using a Multidrop Combi, the remaining constituents of the kinase reaction were added to the 130 nL of dosed compound as follows (see table below for final reaction details):Enzyme activity assays at the APPKM for ATP or 1 mM ATP: In each well of a 384-well plate, 0.1 - 15 nM of untreated enzyme was incubated in a total of 13 µL of buffer (100 mM HEPES pH 7.5, 0.015% Brij 35, 10 mM MgCl2, 1mM DTT) with 1.5 µM fluorescent peptide and 20 - 1000 µM ATP, at 25 °C, for 60 - 180 minutes in the presence or absence of a dosed concentration series of compound (1% DMSO final concentration). The kinase reactions were stopped by the addition of 70 µl of Stop buffer (100 mM HEPES pH 7.5, 0.015% Brij 35, 35 mM EDTA and 0.2% of Coating Reagent 3 (Caliper Lifesciences)). The plates were read on a Caliper EZReader 2 as described above.
For the compound `CC[C@@H](O)c1cnc(OC)c2cnc(Nc3ccc4c(n3)[C@@H](C)C(C)(C)OC4=O)cc12` [WO2023288264, Compound 14], the IC50 is 0.25 nM and 0.61 nM.

For the compound `COc1ncc([C@](C)(O)C(F)F)c2cc(Nc3ccnc(C(C)(C)F)n3)ncc12` [WO2023288264, Compound 12], the IC50 came to 47 nM. As for `COC[C@H](O)c1cnc(OC)c2cnc(Nc3ccc4c(n3)[C@@H](C)C(C)(C)OC4=O)cc12` [WO2023288264, Compound 19], the figure is 14 nM; as for `C[C@@H]1OC(=O)c2ccc(Nc3cc4c([C@@](C)(O)C5CC5)cnc(OC5CC5)c4cn3)nc2[C@H]1C` [WO2023288264, Compound 25], 27 nM; as for `COc1ncc([C@@H](C)O)c2cc(Nc3ccnc(C(C)(C)F)n3)ncc12` [WO2023288264, Compound 1], 121 nM. As for `CC[C@](C)(O)c1cnc(NC2CC2)c2cnc(Nc3ccc4c(n3)[C@@H](C)[C@H](C)OC4=O)cc12` [WO2023288264, Compound 20], the figure is 3.48 nM; as for `CCOc1ncc([C@](C)(O)CC)c2cc(Nc3ccc4c(n3)[C@@H](C)C(C)(C)OC4=O)ncc12` [WO2023288264, Compound 23], 3.34 nM. `COC[C@@H](O)c1cnc(OC)c2cnc(Nc3ccc4c(n3)[C@@H](C)C(C)(C)OC4=O)cc12` [WO2023288264, Compound 18] had an IC50 of 1.65 nM. As for `COc1ncc(C(C)(C)O)c2cc(Nc3ccnc(N4CCCC4)n3)ncc12` [WO2023288264, Compound 9], the figure is 1.63 nM. `CC[C@@](C)(O)c1cnc(NC2CC2)c2cnc(Nc3ccc4c(n3)[C@@H](C)[C@H](C)OC4=O)cc12` [WO2023288264, Compound 21] yielded an IC50 of 1.98 nM. Consider `COc1ncc([C@H](C)O)c2cc(Nc3ccnc(C(C)(C)F)n3)ncc12` [WO2023288264, Compound 2], for which the IC50 turned out to be 64 nM. This IC50 is about 32-fold higher than that of the compound before. As for `COc1ncc([C@@](C)(O)C(F)F)c2cc(Nc3ccnc(C(C)(C)F)n3)ncc12` [WO2023288264, Compound 11], the IC50 came out at 15 nM.

`CC[C@@](C)(O)c1cnc(OC)c2cnc(Nc3ccc4c(n3)[C@@H](C)C(C)(C)OC4=O)cc12` [WO2023288264, Compound 17] displayed an IC50 of 0.3 nM. Compound `CCOc1ncc([C@@](C)(O)CC)c2cc(Nc3ccc4c(n3)[C@@H](C)C(C)(C)OC4=O)ncc12` [WO2023288264, Compound 24] registered an IC50 of 0.39 nM. This IC50 and that of the compound before are within 1.5-fold of each other. For `CC[C@H](O)c1cnc(OC)c2cnc(Nc3ccc4c(n3)[C@@H](C)C(C)(C)OC4=O)cc12` [WO2023288264, Compound 15] the value was 3.06 nM.
